Like-named read-outs stand apart in the source and are kept apart here.
Tests used:
[1] = system: normal skin of CD Hairless male rats; type: in vivo, rat
Text: We tested metallo- and metal-free tetrapyrroles systemically (see following section) for normal skin response in relation to the pharmacodynamic distribution of the photosensitizers in CD hairless rats. The skin of CD hairless rats are poorly developed, often referred to as hyperkeratotic, with various sized cystic hair follicles containing concentric lamellar accumulations of keratinaceous material, which are often associated with enlarged sebaceous glands. It quickly became apparent that gallium tetrapyrroles induced a marked clearing of the hyperkeratotic lesions in the treatment areas on the hairless rats. In fact, this clearing could be induced without necrosis of the skin. No other metallotetrapyrrole type produced such effects. This observation led us to assess the metallotetrapyrrolic compounds for skin restructuring effects both topically and systemically and for their ability to reduce hair growth in the following animal models.
Photosensitizer normal skin response as well as skin healing response, was evaluated using CD Hairless male rats. Photosensitizers were administered in an liposomal egg yolk phospholipid formulation at 1, 1.5 and 2 μmol/kg body weight formulation per dose group as a single bolus intravenous injection given through a marginal tail vein using a 27 gauge needle and a 1 cc tuberculin syringe. Normal skin responses were evaluated by irradiating several spots on the skin of the rat with a 532 nm laser (150 mW/cm^2, 150J, 1 cm diameter) at 1, 6, 24, 48, and 96 hrs post injection. Normal skin responses were evaluated and documented. The time at which the last spot is observed at the concentration injected is reported in the far right hand column in Tables 3, 4, 5 and 6. Skin samples were taken for histological evaluation at days 1, 10, 20 and 22 post light treatment. Rats were housed under normal lighting and all study procedures involving the test article were conducted under light filtered through blue and green Roscolox light filters to prevent photoactivation or degradation of the drug.

[2] = system: normal uninjured rat carotid arteries (medial and adventitial cell populations); test: In vivo rat carotid artery acellularity after PDT; parameters: species or system Sprague Dawley rats; conditions: for Max % rat Artery Accelularity: Table 3; for Max % Rat Artery Accelularity: Table 4
Experimental: The acute effects of metallated photosensitizers, in response to light activation, to cause depletion of cell populations in the medial and adventitial layers of vessels was measured in normal uninjured rat carotid arteries. […] Shortly before the light treatment, the rats were anaesthetized with 3.5% isoflurane (Abbott Laboratories, IL, USA) and the femoral region of the right leg was shaved and cleaned. […] A direct arteriotomy was performed and a light balloon catheter ([…] Medical Technologies, Inc) was introduced into the vessel and advanced retrogradely into a non-manipulated region of the left common carotid artery via the abdominal aorta. […] After light treatment and removal of the catheter, the right femoral artery was tied off and the skin wound was closed. Rats were sacrificed three days post treatment as this corresponds to the known peak time that vascular cells, e.g., VSMC and myofibroblasts, proliferate and migrate in response to an injury. The area spanning both left and right carotid arteries and surrounding tissue was harvested, fixed, embedded in paraffin and sectioned. The tissues were stained with Hematoxylin and Eosin (Fisher Scientific, PA) and examined by light microscopy to histologically assess the cell population density in the medial and adventitial layers of the PDT-treated vessel wall. […] Metallo azaporphyrins with Ga, Zn, Al, Sn were excited at 575 nm, while Pt azaporphyrins were excited at 532 nm.

[3] = system: V79 (Chinese Hamster Lung Fibroblasts) cells; test: In vitro cytotoxicity assay (light EC50, Alamar blue); type: cell-based
How it was run: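 V79 cells in phenol-free 5% FBS/DMEM exposed 24 h to photosensitizer at final 0.01–5.0 μM, six replicates, then washed and light-treated, with a dark plate as control. Survival by Alamar blue after 24 h dark incubation, read at 570/600 nm.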

[4] = Table 3 porphyrins, 24 h drug incubation, 532 nm, 1.25 J/cm^2, read-out: In Vitro EC50 Light
[5] = drug dose 1 μMol, 50 J/cm^2, 3 days post treatment
[6] = drug dose 1 μMol, 575 nm (Pt 532 nm)
[7] = Table 4 azaporphyrins, 575 nm (Pt azaporphyrins 532 nm), 1.25 J/cm^2, read-out: In Vitro EC(50)
[8] = Table 3, time of last skin spot observed post injection, 1 μmol, 532 nm laser

Normal skin Response (1 μmol) ([1]; rat, in vivo) [h]	Compound	EC50 [3, 4] [nM]	Max % rat Artery Accelularity [2, 5] [%]	other results
96	CC1=Cc2cc3[n-]c(cc4nc(cc5[n-]c(cc1n2)c(C)c5CCCO)C(CCCO)=C4C)cc3C.[Cl-].[Ga+3] [Example 8, Gallium Chloride 8,13-desvinyl-3,7,12,17-tetramethylporphyrin-2,18-di(3′-hydroxypropyl)]	400	80	
6	CCC1=C(C)C2=[N+]3C1=Cc1c(C)c(CC)c4[n]1[Ga-2]31([Cl])[n]3c(c(C)c(CCC(=O)NCCOC)c3=CC3=[N+]1C(=C4)C(C)=C3CCC(=O)NCCOC)=C2 [Example 11, Gallium Chloride Mesoporphyrin di-(2′-methoxyethyl amide)]	1900	30	
6	C=Cc1c(C)c2cc3nc(c(CC(=O)OC)c4[n-]c(cc5nc(cc1[n-]2)C(C)=C5CC)c(C)c4C(=O)NC)C(CCC(=O)OC)=C3C.[Cl-].[Ga+3] [Example 14, Gallium Chloride Chloroporphyrin e6 Dimethyl Ester 12-methylamide]			Max % Rat Artery Acceluarity ([2]; Table 5, drug dose 1 μMol): 65%; EC50 ([3]; Table 5 plant derived gallium porphyrins, light, read-out: In Vitro EC(50)): 290 nM
96	CCC1=C(C)C2=[N+]3C1=Cc1c(C)c(CC)c4[n]1[Ga-2]31([Cl])[n]3c(c(C)c(CCC(=O)N(CC)CC)c3=CC3=[N+]1C(=C4)C(C)=C3CCC(=O)N(CC)CC)=C2 [Example 15, Gallium Chloride Mesoporphyrin N,N-diethylamide]	450	60	
48	CCC1=C(CC)C2=[N+]3C1=Nc1c(CC)c(CC)c4[n]1[Ga-2]31([Cl])[n]3c(c(C)c(CCC(=O)NC)c3=CC3=[N+]1C(=C4)C(C)=C3CCC(=O)NC)=C2 [Example 22, Gallium Chloride 7,8,12,13-tetraethyl-12,17-dimethyl-10-azaporphyrin-2,18-di(propionic acid methyl amide)]			Max % Rat Artery Accelularity ([2]; drug dose 0.5 μMol): 50%; EC50 [3, 7]: 450 nM
96	CCC1=C(C)c2cc3[n-]c(cc4nc(cc5[n-]c(cc1n2)c(C)c5CCC(=O)OC)C(CCC(=O)OC)=C4C)c(C)c3CC.[Cl-].[In+3] [Example 31, Indium Chloride Mesoporphyrin Dimethyl Ester]	70	90	
24	CCC1=C(C)c2cc3[n-]c(cc4nc(cc5[n-]c(cc1n2)c(C)c5CCC(=O)OCCF)C(CCC(=O)OCCF)=C4C)c(C)c3CC.[Cl-].[Ga+3] [Example 34, Gallium Chloride Mesoporphyrin di (2-fluoroethylester)]	400	80	
96	CCC1=C(C)c2cc3[n-]c(cc4nc(cc5[n-]c(cc1n2)c(C)c5CC)C(C)=C4CCC(=O)OCCCCl)c(CCC(=O)OCCCCl)c3C.[Cl-].[Ga+3] [Example 35, Gallium Chloride Mesoporphyrin di (3-chloropropylester)]	400	80	
96	CC1=Cc2cc3[n-]c(cc4nc(cc5[n-]c(cc1n2)cc5C)C(C)=C4CCC(=O)OCCCCl)c(CCC(=O)OCCCCl)c3C.[Cl-].[Ga+3] [Example 36, Gallium Chloride Deuteroporphyrin di (3-chloropropylester)]	400	80	
24	CC1=Cc2cc3[n-]c(cc4nc(cc5[n-]c(cc1n2)c(C)c5CCC(=O)OCC(F)(F)F)C(CCC(=O)OCC(F)(F)F)=C4C)cc3C.[Cl-].[Ga+3] [Example 38, Gallium Chloride Deuteroporphyrin di (2,2,2-trifluoroethylester)]	400	80	
6	COC(=O)CCC1=C(C)c2cc3[n-]c(cc4nc(cc5[n-]c(cc1n2)c(CCC(=O)OC)c5C)C(Br)=C4C)c(Br)c3C.[Cl-].[Ga+3] [Example 39, Gallium Chloride 3,8-dibromodeuteroporphyrin dimethyl ester]	400	75	

The remaining lines, values behind:

Compound	Normal skin Response (1 μmol) ([1]; rat, in vivo) [h]	EC50 [3, 4] [nM]	Max % rat Artery Accelularity [2, 5] [%]	other results
8,13-diethyl-3,7,12,17-tetramethylporphrine-2,18-di(3′-hydroxypropyl) [Example 7a]		400		Normal skin Response (1 μmol) in hrs ([1]; rat, in vivo): none; Max % rat Artery Accelularity ([2]; drug dose 0.16 μMol): 7%; efficacy of free base porphyrins in the arterial rat model ([2]; at the time point, drug and light dose parameters used): poor efficacy; efficacy in the rat arterial model ([2]; drug doses up to 2 μmol/Kg): no efficacy
CCOC(=O)CCC1=C(C)c2cc3[n-]c(cc4nc(cc5[n-]c(cc1n2)c(CCC(=O)OCC)c5C)C(CC)=C4C)c(CC)c3C.[Cl-].[Ga+3] [Example 2, Gallium Chloride Mesoporphyrin Diethyl Ester]	24	490	80	
CCOC(=O)CCC1=C(C)c2cc3[n-]c(cc4nc(cc5[n-]c(cc1n2)c(CCC(=O)OCC)c5C)C=C4C)cc3C.[Cl-].[Ga+3] [Example 5, Gallium Chloride Deuteroporphyrin Diethyl Ester]	48	400	80	
COC(=O)CCC1=C(C)c2cc3[n-]c(cc4nc(cc5[n-]c(cc1n2)c(CCC(=O)OC)c5C)C(CN(C)C)=C4C)c(CN(C)C)c3C.[Ga+3].[OH-] [Example 12, Gallium Hydroxy 3,8-N,N-dimethylaminomethyl deuteroporphyrin dimethyl ester]		500	50	Normal skin Response (1 μmol) in hrs ([1]; rat, in vivo): None
C=CC1=C(C)c2nc1cc1[n-]c(cc3nc(cc4[n-]c(n2)c(C)c4CCC(=O)OC)C(CCC(=O)OC)=C3C)c(C=C)c1C.[Cl-].[Ga+3] [Example 19, Gallium Chloride 5-azaprotoporphyrin IX Dimethyl Ester]				Normal skin Response (1 μmol) ([1]; Table 4, time of last skin spot observed post injection, 1 μmol): 24 h; Max % Rat Artery Accelularity [2, 6]: 55%; EC50 [3, 7]: 400 nM
CCC1=C(CC)C2=[N+]3C1=Nc1c(CC)c(CC)c4[n]1[Ga-2]31([Cl])[n]3c(c(C)c(CCC(=O)OC)c3=CC3=[N+]1C(=C4)C(C)=C3CCC(=O)OC)=C2 [Example 21, Gallium Chloride 7,8,12,13-tetraethyl-12,17-dimethyl-10-azaporphyrin-2,18-di(propionic acid methyl ester)]	24			Max % Rat Artery Accelularity [2, 6]: 60%; EC50 [3, 7]: 400 nM
CCOC(=O)CCCCC1=C(C)c2cc3[n-]c(cc4nc(cc5[n-]c(cc1n2)c(CCCCC(=O)OCC)c5C)C(C)=C4CC)c(C)c3CC.[Cl-].[Ga+3] [Example 28, Gallium Chloride 8,13-diethyl-3,7,12,17-tetramethylporphyrin-2,18-di(pentanoic acid ethyl ester)]	6	400	80	
CC1=Cc2cc3[n-]c(cc4nc(cc5[n-]c(cc1n2)cc5C)C(C)=C4CCC(=O)OCCF)c(CCC(=O)OCCF)c3C.[Cl-].[Ga+3] [Example 37, Gallium Chloride Deuteroporphyrin di (2-fluoroethylester)]		400	80	Normal skin Response (1 μmol) [1, 8]: 48 h
COC(=O)CCC1=C(C)c2cc3[n-]c(cc4nc(cc5[n-]c(cc1n2)c(CCC(=O)OC)c5C)C(CO)=C4C)c(CO)c3C.[Cl-].[Ga+3] [Example 40, Gallium Chloride 3,8-hydroxymethyl deuteroporphyrin dimethyl ester]		600	5	Normal skin Response (1 μmol) [1, 8]: 6 h
